# How the values were obtained:
# IL-17A/A = target: T1, IL-17A/A (Homo sapiens, UniProt Q16552); test: IL-17A/A HEK-Blue Cell Assay; type: cell-based; details: HEK-Blue IL-17 reporter cells, IL-17A/A stimulation, 20 hours, SEAP readout; read-out: IL17 AA HEK-5 pIC50 (converted)
# T1 sequence (Q16552 24-155): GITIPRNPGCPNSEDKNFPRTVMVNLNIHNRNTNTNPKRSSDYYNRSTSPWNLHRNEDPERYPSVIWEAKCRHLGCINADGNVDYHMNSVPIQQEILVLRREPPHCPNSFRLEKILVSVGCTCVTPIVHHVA
# How it was run: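 Cells co-expressing IL-17RA, IL-17RC and Act1 received titrated compound, top final 10 uM in 0.1% DMSO, immediately before IL-17A/A stimulation.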
# IL-17A/F = target: T2, IL-17A/F (Homo sapiens, UniProt Q16552+Q96PD4); test: IL-17A/F HEK-Blue Cell Assay; type: cell-based; details: HEK-Blue IL-17 reporter cells, IL-17A/F stimulation, 20 hours, SEAP readout; read-out: IL17AF HEK Blue pIC50 (converted)
# T2 sequence (Q16552 24-155): T1 sequence (Q16552 24-155)
# T2 sequence (Q96PD4 31-163): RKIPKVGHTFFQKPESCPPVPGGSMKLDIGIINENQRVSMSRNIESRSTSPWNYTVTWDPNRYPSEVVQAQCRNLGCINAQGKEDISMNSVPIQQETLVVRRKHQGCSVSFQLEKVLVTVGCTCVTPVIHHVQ
IC50 (IL-17A/A) [nM],IC50 (IL-17A/F) [nM],Structure (SMILES)
< 10,10 to 100,"CCC(OC)C(=O)N[C@@H](C(=O)N1CCN(C)CC1)[C@@H](C)c1ccc(NC(=O)[C@@H](NC(=O)c2ccnn2CC)C(C2CC2)C2CC2)c(F)c1 (single isomer, unassigned) [Compound 340]"
< 10,10 to 100,CCOC(=O)N[C@@H](CF)C(=O)N[C@@H](C(=O)N1CCN(C)CC1)[C@@H](C)c1ccc(NC(=O)[C@@H](NC(=O)c2nonc2C)C(C2CC2)C2CC2)c(F)c1 [Compound 360]
100 to 10000,100 to 10000,"CCn1nccc1C(=O)N[C@H](C(=O)Nc1ccc(C(C(NC(=O)[C@H](C)OC)C(=O)N2CCN(C)[C@H](C)C2)C(F)(F)F)cc1F)C(C1CC1)C1CC1 (single isomer, unassigned) [Compound 351]"
10 to 100,100 to 10000,"CCn1nccc1C(=O)N[C@H](C(=O)Nc1ccc([C@H](C)[C@@H](NC(=O)C(C)C(F)(F)F)C(=O)N2CCN(C)CC2)cc1F)C(C1CC1)C1CC1 (single isomer, unassigned) [Compound 333]"
10 to 100,100 to 10000,COCC(=O)N[C@@H](C(=O)N1CCN(C)CC1)[C@@H](C)c1ccc(NC(=O)[C@@H](NC(=O)c2nonc2C)C(C2CC2)C2CC2)c(F)c1 [Compound 346]

# The remaining lines, values behind:
Structure (SMILES),IC50 (IL-17A/A) [nM],IC50 (IL-17A/F) [nM]
CO[C@@H](C)C(=O)N[C@@H](C(=O)N1C[C@@H](C)N(C)C[C@H]1C)[C@@H](C)c1ccc(NC(=O)[C@@H](NC(=O)C2(F)CC2)C(C2CC2)C2CC2)c(F)c1 [Compound 290],< 10,100 to 10000
CCn1nccc1C(=O)N[C@H](C(=O)Nc1ccc([C@H](C)[C@@H](NC(=O)[C@H](C)N(C)c2ncncn2)C(=O)N2CCN(C)[C@H](C)C2)cc1F)C(C1CC1)C1CC1 [Compound 305],< 10,< 10
"CCOC(C)C(=O)N[C@@H](C(=O)N1CCN(C)[C@H](C)C1)[C@@H](C)c1ccc(NC(=O)[C@@H](NC(=O)c2ccnn2CC)C(C2CC2)C2CC2)c(F)c1 (single isomer, unassigned) [Compound 320]",10 to 100,100 to 10000
CCn1nccc1C(=O)N[C@H](C(=O)Nc1ccc([C@H](C)[C@@H](NC(=O)C(C2CC2)C2CC2)C(=O)N2CCN(C)CC2)cc1F)C(C1CC1)C1CC1 [Compound 330],< 10,10 to 100
"CCn1nccc1C(=O)N[C@H](C(=O)Nc1ccc([C@H](C)[C@@H](NC(=O)C(C)C(F)(F)F)C(=O)N2CCN(C)[C@H](C)C2)cc1F)C(C1CC1)C1CC1 (single isomer, unassigned) [Compound 326]",10 to 100,100 to 10000
"CCn1nccc1C(=O)N[C@H](C(=O)Nc1ccc([C@H](C)[C@@H](NC(=O)C(C)C2CC2)C(=O)N2CCN(C)[C@H](C)C2)cc1F)C(C1CC1)C1CC1 (single isomer, unassigned) [Compound 309]",< 10,< 10
COC(=O)N1CC[C@H]1C(=O)N[C@@H](C(=O)N1CCN(C)CC1)[C@@H](C)c1ccc(NC(=O)[C@@H](NC(=O)C2(F)CC2)C(C2CC2)C2CC2)c(F)c1 [Compound 277],10 to 100,100 to 10000
CCn1nccc1C(=O)N[C@H](C(=O)Nc1ccc([C@H](C)[C@@H](NC(=O)COC)C(=O)N2C[C@@H](C)N(C)[C@@H](C)C2)cc1F)C(C1CC1)C1CC1 [Compound 293],< 10,10 to 100
"CCn1nccc1C(=O)N[C@H](C(=O)Nc1ccc([C@H](C)[C@@H](NC(=O)[C@H](C)OC)C(=O)N2CCN(C)C(CF)C2)cc1F)C(C1CC1)C1CC1 (single isomer, unassigned) [Compound 299]",< 10,10 to 100
CCn1nccc1C(=O)N[C@H](C(=O)Nc1ccc([C@H](C)[C@@H](NC(=O)[C@H](C)OC)C(=O)N2C[C@H]3C[C@@H](C2)N3C)cc1F)C(C1CC1)C1CC1 [Compound 307],10 to 100,100 to 10000
CCC(=O)N[C@@H](C(=O)N1CCC[C@H](N)C1)[C@@H](C)c1ccc(NC(=O)[C@@H](NC(=O)c2ccnn2CC)C(C2CC2)C2CC2)c(F)c1 [Compound 267],10 to 100,100 to 10000

# Reference: US20250177383A1, “DI-CYCLOPROPYL BASED IL-17A MODULATORS AND USES THEREOF” (DICE ALPHA, INC., priority 2022, published 2025)
